Experimental findings from patent US12304912B2, “Fused bicyclic RAF inhibitors and methods for use thereof” (Jazz Pharmaceuticals Ireland Limited, priority 2020, dated 2025) are described below.

Data set [1] can be described thus: Plasma protein binding assay, mouse plasma (mPPB). It is filed as in vitro ADME. As to conditions: 5 μM, equilibrium dialysis 4 hours 37° C. The method, then: (§1) Plasma Protein Binding Assay The plasma protein binding was determined by the equilibrium dialysis method. A known concentration of compound (5 μM) in previously frozen human or mouse plasma (Sera Labs) was dialysed against phosphate buffer using a RED device (Life Technologies) for 4 hours at 37° C. The concentration of compound in the protein containing (PC) and protein free (PF) sides of the dialysis membrane were determined by LC-MS/MS and the % free compound was determined by equation 4. Data analysis was performed using Excel (Microsoft, USA). % free=(1−((PC−PF)/PC))×100 (4) hPPB (human plasma protein binding) and mPPB (mouse plasma protein binding) results are described in Tables 1-2.
In general terms: Equilibrium dialysis compares concentrations on both sides of a semipermeable membrane.

In data set [2] the test system is RAF dimers in HCT-116 cells. Put plainly: HCT-116 AlphaLISA SureFire pERK1/2 cellular assay (dimer). As to conditions: Homo sapiens, HCT-116; HCT116 cells pre-dosed with 1 μM Encorafenib, 1 hr; read-out: pERK HCT116 dimer (1 hr) pIC50 (converted). In kind it is cell-based. Here is the method: (§2) The human HCT-116 colorectal carcinoma cell line (ATCC CCL-247) endogenously expresses the KRAS^G13D mutation, which leads to constitutive activation of the MAP kinase pathway and phosphorylation of ERK. […] Assay read outs took place 2 or 24 hours after dosing with compounds. On the first day, HCT-116 cells were harvested, resuspended in growth medium (McCoys5A with Glutamax (Life Technologies 36600021) and 10% heat-inactivated fetal bovine serum (Sigma F9665)), and counted. Cells were plated in 100 μl per well in each well of a 96-well culture dish (Sigma CLS3598) to a final density of 30,000 (2 hr read) or 15,000 (24 hr read) cells per well and incubated over night at 37° C. and 5% CO2. On day 2, the growth medium was exchanged for dosing medium (McCoys5A with Glutamax (Life Technologies 36600021) and 1% heat-inactivated fetal bovine serum (Sigma F9665)) and the cells were dosed with compounds to produce a 10-point dose response, where the top concentration was 1 μM and subsequent concentrations were at 1/3 log dilution intervals. A matched DMSO control was included. The cells were subsequently incubated for either 2 or 24 hours at 37° C. and 5% CO2. After incubation, media was removed and the cells were incubated with lysis buffer containing phosphatase inhibitors for 15 minutes at room temperature. Cell lysates were transferred to a 12 area 96 well white Optiplate™ (Perkin Elmer 6005569) and incubated with anti-mouse IgG acceptor beads, a biotinylated anti-ERK1/2 rabbit antibody recognizing both phosphorylated and non-phosphorylated ERK1/2, a mouse antibody targeted to the Thr202/Tyr204 epitope and recognizing phosphorylated ERK proteins only, and streptavidin-coated donor beads. The biotinylated antibody binds to the streptavidin-coated donor beads and the phopsho-ERK1/2 antibody binds to the acceptor beads. Plates were read on an EnVision reader (Perkin Elmer) and excitation of the beads at 680 nm with a laser induced the release of singlet oxygen molecules from the donor beads that trigger energy transfer to the acceptor beads in close proximity, producing a signal that can be measured at […]. Both antibodies bound to phosphorylated ERK proteins, bringing the donor and acceptor beads into close proximity. All data were analyzed using the Dotmatics or GraphPad Prism software packages. Inhibition of ERK phosphorylation was assessed by determination of the absolute IC50 value, which is defined as the concentration of compound required to decrease the level of phosphorylated ERK proteins by 50% when compared to DMSO control.
HCT-116 AlphaLISA SureFire pERK1/2 Cellular Assay (Dimer)
The human HCT-116 colorectal carcinoma cell line (ATCC CCL-247) endogenously expresses the KRAS^G13D mutation, which leads to constitutive activation of the MAP kinase pathway and phosphorylation of ERK. First generation RAF inhibitors can promote RAF dimer formation in KRAS mutant tumours leading to a paradoxical activation of the pathway. To determine whether compounds can circumvent this problem and inhibit RAF dimers in HCT-116 cells, they were tested using AlphaLISA® SureFire® technology (Perkin Elmer p-ERK1/2 p-T202/Y204 assay kit ALSU-PERK-A10K). The main procedure is essentially the same as described above, with the following adjustments: Cells were seeded with the seeding density of 30,000 cells per well. On the second day (the day of dosing) no medium change was performed and the cells were dosed with 1 μM of Encorafenib for 1 hour (at 37° C. and 5% CO2) to induce RAF dimers and promote paradoxical dimer-dependent pERK signalling. After incubation, the cells were washed, 100 μl fresh growth medium was added, and cells were dosed with compounds of interest to produce a 10-point dose response, where the top concentration was 10 μM and subsequent concentrations are at 1/2 log dilution intervals. Cells were incubated for another hour at 37° C. and 5% CO2 before lysis and processing with the pERK AlphaLISA® SureFire® kit as described above. […]

Data set [3] is described as follows: Plasma protein binding assay, human plasma (hPPB). In kind it is in vitro ADME. Particulars: 5 μM, equilibrium dialysis 4 hours 37° C. The method, then:
as §1

Data set [4] relates to BRAF monomers in A375 cells. As to the kind of experiment: A375 AlphaLISA SureFire pERK1/2 cellular assay (monomer). It is filed as cell-based. As to conditions: Homo sapiens, A-375; A375 cells, 1 hr; read-out: pERK A375 (1 hr) pIC50 (converted). The method, then: as §2
A375 AlphaLISA SureFire pERK1/2 Cellular Assay (Monomer)
The human A375 melanoma cell line (ATCC CRL-1619) endogenously expresses the BRAF^V600E mutation, which leads to constitutive activation of the MAP kinase pathway and phosphorylation of ERK. In BRAF^V600E mutant tumours, BRAF signals as a monomer to activate ERK. To determine whether compounds can inhibit BRAF monomers in A375 cells, they were tested using AlphaLISA® SureFire® technology (Perkin Elmer p-ERK1/2 p-T202/Y204 assay kit ALSU-PERK-A10K). The main procedure is essentially the same as described above for HCT-116 cells, with the following adjustments: The A375 cells were cultivated and dosed in Dulbecco's modified Eagle's medium containing 4.5 g/L D-glucose (Sigma D6546), 10% heat-inactivated fetal bovine serum (Sigma F9665), and 1% Sodium-Pyruvate (Sigma S8636), and seeded with a seeding density of 30,000 cells per well. No media exchange was performed before dosing with compounds to produce a 10-point dose response, where the top concentration was 10 μM and subsequent concentrations were at 1/2 log dilution intervals. Subsequently, the cells were incubated for 1 hour at 37° C. and 5% CO2 before lysis.

Data set [5] can be described thus: Microsomal stability assay, mouse liver microsomes (MLM). In kind it is in vitro ADME. As to conditions: 0.5 mg/mL protein, 1 μM substrate. Here is the method: (§3) Microsomal Stability Assay
(§4) The stability studies were performed manually using the substrate depletion approach. Test compounds were incubated at 37° C. with cryo-preserved mouse or human liver microsomes (Corning) at a protein concentration of 0.5 mg·mL^−1 and a final substrate concentration of 1 μM. Aliquots were removed from the incubation at defined timepoints and the reaction was terminated by adding to ice-cold organic solvent. Compound concentrations were determined by LC-MS/MS analysis. The natural log of the percentage of compound remaining was plotted against each time point and the slope determined. The half-life (t1/2) and CLint were calculated using Equations 1 and 2, respectively.
(§5) HLM (human liver microsomes) and MLM (mouse liver microsomes) stability assay results are described in Tables 1-2.
(Liver microsomes are a subcellular fraction often used to study metabolism.)

A short description of data set [6]: Microsomal stability assay, human liver microsomes (HLM). In kind it is in vitro ADME. As to conditions: 0.5 mg/mL protein, 1 μM substrate. The method, then: as §3, §4, §5
Data set [7] is described as follows: Solubility (Sol), medium not stated. Particulars: cells not marked (FESSIF). It is filed as physicochemical.

As a reminder, the microsomal CLint is the rate of metabolic loss divided by the concentration. As for `O=C1CCc2c(Oc3ccc4c(c3)CC(c3nc(-c5ccc(Cl)cc5)c[nH]3)CO4)ccnc2N1` (centres unmarked) [Compound 11, 5-[3-[4-(4-chlorophenyl)-1H-imidazol-2-yl]chroman-6-yl]oxy-3,4-dihydro-1H-1,8-naphthyridin-2-one], in data set [1], the “mPPB (% free)” value came out at 0.1 % free. In addition, the IC50 in data set [2] was 0.214 µM; in data set [4] it was 0.257 µM. Also, the “hPPB (% free)” value in data set [3] is on record as 0.5 % free. Moreover, the intrinsic metabolic clearance (microsomal CLint) at 1 μM in data set [5] stood at 29.1 µL/min/mg; in data set [6] it was 10.3 µL/min/mg. For the same molecule, the Sol in data set [7] was <1.2 mg/L.
Regarding `CN(C)Cc1cc(C(F)(F)F)c2nc(C3COc4ccc(Oc5ccnc6c5CCC(=O)N6)cc4C3)[nH]c2c1` (centres unmarked) [Compound 34], the “mPPB (% free)” value in data set [1] is 3.2 % free. The “hPPB (% free)” value in data set [3] is recorded as 0.7 % free. Moreover, in data set [4], the IC50 was 4.47 µM. For the same molecule, the results for the microsomal CLint at 1 μM in data set [5] and in data set [6] were 8.6 µL/min/mg and 46.9 µL/min/mg, respectively. Moreover, in data set [7], the Sol is 28.7 mg/L.
Consider `COc1cccc(-c2cc(C3COc4ccc(Oc5ccnc6c5CCC(=O)N6)cc4C3)[nH]n2)c1` (centres unmarked) [Compound 41], for which the “mPPB (% free)” value in data set [1] was 1.2 % free. Moreover, the IC50 was 0.302 µM in data set [2] and 0.513 µM in data set [4]. Further, in data set [5], the microsomal CLint at 1 μM came out at 46.1 µL/min/mg. Besides, the Sol in data set [7] is reported as <1.2 mg/L.
With `O=C1CCc2c(Oc3ccc4c(c3)CC(c3cc(-c5cccc(C(F)(F)F)c5)n[nH]3)CO4)ccnc2N1` (centres unmarked) [Compound 42], in data set [1], the “mPPB (% free)” value is <0.1 % free. Also, the values for the IC50 in data set [2] and in data set [4] were 0.741 µM and 0.891 µM, respectively. Besides, the microsomal CLint at 1 μM in data set [5] was found to be 22 µL/min/mg; in data set [6], 10.6 µL/min/mg. The Sol in data set [7] is on record as <1.3 mg/L.
As to `c1ccc(-c2c[nH]c(C3COc4ccc(OC5CCOCC5)cc4C3)n2)cc1` (centres unmarked) [compound 51], the “mPPB (% free)” value in data set [1] came out at 2.6 % free. Besides, the “hPPB (% free)” value in data set [3] came to 0.5 % free. In addition, the figures for the intrinsic metabolic clearance (microsomal CLint) at 1 μM in data set [5] and in data set [6] were 123 µL/min/mg and 156 µL/min/mg, respectively. Besides, the Sol in data set [7] is reported as 1.2 mg/L.
For `N#Cc1cccc(-c2c[nH]c(C3COc4ccc(Oc5ccnc6c5CCC(=O)N6)cc4C3)n2)c1` (centres unmarked) [Compound 16, 3-[2-[6-[(7-oxo-6,8-dihydro-5H-1,8-naphthyridin-4-yl)oxy]chroman-3-yl]-1H-imidazol-4-yl]benzonitrile], the IC50 in data set [2] is 0.617 µM; in data set [4], 0.575 µM. Moreover, in data set [7], the Sol was <1.2 mg/L.
With `COc1ccccc1-c1cc(C2COc3ccc(Oc4ccnc5c4CCC(=O)N5)cc3C2)[nH]n1` (centres unmarked) [Compound 40], the IC50 in data set [2] is 0.324 µM; in data set [4], 0.251 µM. In addition, in data set [5], the intrinsic clearance (microsomal CLint) at 1 μM was found to be 27.1 µL/min/mg. In addition, in data set [7], the Sol is <1.2 mg/L.
Turning to `O=C1CCc2c(Oc3ccc4c(c3)CC(c3cc(-c5ccccc5Cl)n[nH]3)CO4)ccnc2N1` (centres unmarked) [Compound 36], the “mPPB (% free)” value in data set [1] was <0.1 % free. The IC50 in data set [2] was 0.174 µM; in data set [4], 0.525 µM. Besides, the intrinsic clearance (microsomal CLint) at 1 μM in data set [5] worked out at 18.4 µL/min/mg; in data set [6], 23.5 µL/min/mg. In data set [7], the Sol is recorded as <1.2 mg/L.
For the molecule `O=C1CCc2c(Oc3ccc4c(c3)CC(c3cc(-c5ccc(C(F)(F)F)cc5)n[nH]3)CO4)ccnc2N1` (centres unmarked) [Compound 38], the IC50 was 3.98 µM in data set [2] and 8.51 µM in data set [4]. Also, the microsomal CLint at 1 μM in data set [5] worked out at 4.3 µL/min/mg; in data set [6] it was 3 µL/min/mg. Further, in data set [7], the Sol is on record as <1.3 mg/L.
For `O=C1CCc2c(Oc3ccc4c(c3)CC(c3cc(-c5cccc(Cl)c5)n[nH]3)CO4)ccnc2N1` (centres unmarked) [Compound 37], the IC50 in data set [2] was 0.339 µM; in data set [4], 0.501 µM. Moreover, the microsomal CLint at 1 μM in data set [5] came out at 18.4 µL/min/mg. The Sol in data set [7] is reported as <1.2 mg/L.
In the case of `O=C1CCc2c(Oc3ccc4c(c3)CC(c3nc5cc(C(F)(F)F)cc(Cl)c5[nH]3)CO4)ccnc2N1` (centres unmarked) [Compound 30], the IC50 in data set [2] was 1.32 µM; in data set [4], 0.162 µM. The Sol in data set [7] is <1.3 mg/L.
Take `O=C1CCc2c(Oc3ccc4c(c3)CC(c3cc(-c5ccccc5C(F)(F)F)n[nH]3)CO4)ccnc2N1` (centres unmarked) [Compound 35, 5-[3-[3-[2-(trifluoromethyl)phenyl]-1H-pyrazol-5-yl]chroman-6-yl]oxy-3,4-dihydro-1H-1,8-naphthyridin-2-one]: the IC50 in data set [2] is 0.525 µM; in data set [4] it was 2.45 µM. Further, the “hPPB (% free)” value in data set [3] was <0.1 % free. The results for the intrinsic clearance (microsomal CLint) at 1 μM in data set [5] and in data set [6] were 42.1 µL/min/mg and 277 µL/min/mg, respectively. For the same molecule, the Sol in data set [7] was <1.3 mg/L.
`O=C1CCc2c(Oc3ccc4c(c3)CN(C(=O)Nc3ccccc3)CC4)ccnc2N1` [Compound 46, 7-[(7-oxo-6,8-dihydro-5H-1,8-naphthyridin-4-yl)oxy]-N-phenyl-3,4-dihydro-1H-isoquinoline-2-carboxamide]: the “mPPB (% free)” value in data set [1] turned out to be 2.3 % free. For the same molecule, the “hPPB (% free)” value in data set [3] was 1.9 % free. Also, the results for the intrinsic metabolic clearance (microsomal CLint) at 1 μM in data set [5] and in data set [6] were 45.5 µL/min/mg and 18.4 µL/min/mg, respectively. In addition, in data set [7], the Sol is <1 mg/L.
